Reference: patent US20260070945A1, “MACROCYCLIC IMMUNOMODULATORS” (Bristol-Myers Squibb Company, priority 2022, published 2026)
pIC50: −log10 of the molar value. *1 amine or outer side, *2 acyl side, *3 side chain or, on linkers, in order; H or OH if unused. Where a SMILES comes first, the peptide text is derived from it. Bridges are numbered along the chain shown (N, C = ends). [ ]: non-standard residue; d: D form. The star is where a group is joined. ξ: configuration not given here. Phe(3-CF3) = N[C@@H](Cc1cccc(C(F)(F)F)c1)C(=O)O; Phe(4-COOH) = N[C@@H](Cc1ccc(C(=O)O)cc1)C(=O)O; Bip = N[C@@H](Cc1ccc(-c2ccccc2)cc1)C(=O)O; Phe(3-Me) = Cc1cccc(C[C@H](N)C(=O)O)c1; γGlu = O=C(O)[C@H](CCC(=O)[*:2])N[*:1]; NH(CH2)12COOH = O=C(O)CCCCCCCCCCCCN*; Val(3-OH) = CC(C)(O)[C@H](N)C(=O)O; aIle = CC[C@@H](C)[C@H](N)C(=O)O; 4Pal = N[C@@H](Cc1ccncc1)C(=O)O; Cha = N[C@@H](CC1CCCCC1)C(=O)O; Cit = NC(=O)NCCC[C@H](N)C(=O)O; Ile(3ξ) = CCC(C)[C@H](N)C(=O)O; Thr(3ξ) = CC(O)[C@H](N)C(=O)O; 12Ado = NCCCCCCCCCCCC(=O)O; Carboxymethyl = O=C(O)C*; NMeA = CN[C@@H](C)C(=O)O; Orn = NCCC[C@H](N)C(=O)O; Aun = NCCCCCCCCCCC(=O)O; Dab = NCC[C@H](N)C(=O)O; Dap = NC[C@H](N)C(=O)O; AEEA = NCCOCCOCC(=O)O; ξV = CC(C)C(N)C(=O)O; Sar = CNCC(=O)O

target: T1, PD-1/PD-L1 interaction (PE-labeled human PD-L1-Ig binding to Jurkat cell line over-expressing human PD-1) (Homo sapiens, UniProt Q15116); experiment: Jurkat-PD-1 Cell Binding High-Content Screening Assay (CBA); settings: Jurkat-hPD-1 cells, PE-labeled PD-L1-Ig 20 nM final; read-out: Jurkat HPD1 PDL1 IC50
T1 construct: expressed in transfected cells; host or cells: Jurkat
T1 sequence (Q15116 25-288): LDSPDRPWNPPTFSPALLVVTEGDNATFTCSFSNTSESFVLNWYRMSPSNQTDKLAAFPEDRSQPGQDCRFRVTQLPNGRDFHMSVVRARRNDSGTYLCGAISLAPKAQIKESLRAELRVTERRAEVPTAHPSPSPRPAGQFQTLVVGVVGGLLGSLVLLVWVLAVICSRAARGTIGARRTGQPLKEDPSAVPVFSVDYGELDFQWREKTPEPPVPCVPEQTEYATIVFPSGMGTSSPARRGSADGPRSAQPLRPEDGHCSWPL
In short: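 Jurkat-hPD-1 cells (8×10^3/well) in DMEM with 10% fetal calf serum were preincubated with compound for 2 h at 37 °C. PE-labeled PD-L1-Ig was then added at 20 nM final for 1 h. Cells were fixed in paraformaldehyde with Hoechst 33342, washed and imaged by high-content imaging.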

Compound | pIC50
Cc1cccc(C[C@@H]2NC(=O)[C@H](CC(=O)O)NC(=O)[C@H](Cc3ccc(OCC(=O)O)cc3)NC(=O)[C@H](CCN)NC(=O)CSC[C@@H](C(=O)N[C@@H](CCN)C(=O)NCCCCCCCCCCC(=O)O)NC(=O)[C@H](CO)NC(=O)[C@H](C(C)O)NC(=O)[C@H](CC3CCCCC3)NC(=O)[C@H](CCN)NC(=O)[C@@H](CC(C)C)NC(=O)[C@H](C)N(C)C(=O)[C@H](Cc3ccc(OCC(=O)O)cc3)NC(=O)[C@H](Cc3ccc(-c4ccccc4)cc3)NC(=O)[C@H](Cc3ccc(OCC(=O)O)cc3)NC2=O)c1 (stereo partly drawn) [Example 2425] ({CH2CO}-[Dab]Y(Carboxymethyl)D[Phe(3-Me)]Y(Carboxymethyl)[Bip]Y(Carboxymethyl)[NMeA][dL][Dab][Cha][Thr(3ξ)]SC[Dab][Aun]-OH; thioether N-14) | 7.81
CC[C@@H](C)[C@@H]1NC(=O)[C@H](Cc2ccc(-c3ccccc3)cc2)NC(=O)[C@H](C(C)C)NC(=O)[C@H](Cc2c[nH]c3ccccc23)NC(=O)[C@H](CC(=O)O)NC(=O)[C@H](Cc2ccc(O)cc2)NC(=O)[C@H](CCCNC(N)=O)NC(=O)CSC[C@@H](C(=O)N[C@H](CC(N)=O)C(=O)NCCOCCOCC(=O)N[C@@H](CCC(=O)NCCOCCOCC(=O)N[C@@H](CCC(=O)NCCOCCOCC(=O)N[C@@H](CCCN)C(=O)NCCCCCCCCCCC(=O)O)C(=O)O)C(=O)O)NC(=O)[C@H](CO)NC(=O)[C@H](C(C)C)NC(=O)[C@H](CC2CCCCC2)NC(=O)[C@H](CC(N)=O)NC(=O)[C@@H](CC(C)C)NC(=O)[C@H](C)N(C)C1=O [Example 2025] ({CH2CO}-[Cit]YDWV[Bip][aIle][NMeA][dL]N[Cha]VSC[dN][AEEA][γGlu][AEEA][γGlu][AEEA][Orn][Aun]-OH; thioether N-14) | 7.30
CC(C)[C@@H]1NC(=O)[C@H](CC2CCCCC2)NC(=O)[C@H](CCN)NC(=O)CN(C)C(=O)[C@H](C)N(C)C(=O)[C@H](C(C)C)NC(=O)[C@H](Cc2ccc(-c3ccccc3)cc2)NC(=O)[C@H](C(C)C)NC(=O)[C@H](Cc2c[nH]c3ccccc23)NC(=O)[C@H](CC(=O)O)NC(=O)[C@H](Cc2ccncc2)NC(=O)[C@H](Cc2ccc(OCC(=O)O)cc2)NC(=O)CSC[C@@H](C(=O)N[C@@H](CCCCN)C(=O)NCCOCCOCC(=O)NCCCCCCCCCCC(=O)O)NC(=O)[C@H](CO)NC1=O [Example 2102] ({CH2CO}-Y(Carboxymethyl)[4Pal]DWV[Bip]V[NMeA][Sar][Dab][Cha]VSCK[AEEA][Aun]-OH; thioether N-14) | 6.47
CC(C)C[C@@H]1NC(=O)[C@H](Cc2c[nH]c3ccccc23)NC(=O)[C@H](CC(=O)O)NC(=O)[C@H](Cc2ccc(C(=O)O)cc2)NC(=O)[C@H](Cc2ccc(OCC(=O)O)cc2)NC(=O)CSC[C@@H](C(=O)NCCOCCOCC(=O)NCCCCCCCCCCC(=O)O)NC(=O)[C@H](CCN)NC(=O)[C@H](C(C)(C)O)NC(=O)[C@H](CC2CCCCC2)NC(=O)[C@H](CCN)NC(=O)[C@@H](CC(C)C)NC(=O)[C@H](C)N(C)C(=O)[C@H](C(C)C)NC(=O)[C@H](Cc2ccc(-c3ccccc3)cc2)NC1=O [Example 1120] ({CH2CO}-Y(Carboxymethyl)[Phe(4-COOH)]DWL[Bip]V[NMeA][dL][Dab][Cha][Val(3-OH)][Dab]C[AEEA][Aun]-OH; thioether N-14) | 7.87
Cc1cccc(C[C@@H]2NC(=O)[C@H](CC(=O)O)NC(=O)[C@H](Cc3ccc(OCC(=O)O)cc3)NC(=O)[C@H]([C@@H](C)O)NC(=O)CSC[C@@H](C(=O)N[C@@H](CCN)C(=O)NCCCCCCCCCCC(=O)O)NC(=O)[C@H](CCC(=O)O)NC(=O)[C@H](C(C)C)NC(=O)[C@H](CC3CCCCC3)NC(=O)[C@H](CCN)NC(=O)[C@@H](CC(C)C)NC(=O)[C@H](C)N(C)C(=O)[C@H](Cc3ccc(OCC(=O)O)cc3)NC(=O)[C@H](Cc3ccc(-c4ccccc4)cc3)NC(=O)[C@H](Cc3ccc(OCC(=O)O)cc3)NC2=O)c1 [Example 1422] ({CH2CO}-TY(Carboxymethyl)D[Phe(3-Me)]Y(Carboxymethyl)[Bip]Y(Carboxymethyl)[NMeA][dL][Dab][Cha]VEC[Dab][Aun]-OH; thioether N-14) | 7.69
CC(C)C[C@H]1NC(=O)[C@H](C)N(C)C(=O)[C@H](CCC(N)=O)NC(=O)[C@H](Cc2ccc(-c3ccccc3)cc2)NC(=O)[C@H](Cc2ccc(C(=O)O)cc2)NC(=O)[C@H](Cc2cccc(C(F)(F)F)c2)NC(=O)[C@H](CC(=O)O)NC(=O)[C@H](Cc2ccc(OCC(=O)O)cc2)NC(=O)[C@H](Cc2ccc(C(=O)O)cc2)NC(=O)CSC[C@@H](C(=O)N[C@@H](CCN)C(=O)NCCCCCCCCCCCCC(=O)O)NC(=O)[C@H](CC(=O)O)NC(=O)[C@H](C(C)(C)O)NC(=O)[C@H](CC2CCCCC2)NC(=O)[C@H](CCN)NC1=O [Example 1142] ({CH2CO}-[Phe(4-COOH)]Y(Carboxymethyl)D[Phe(3-CF3)][Phe(4-COOH)][Bip]Q[NMeA][dL][Dab][Cha][Val(3-OH)]DC[Dab]-{NH(CH2)12COOH}; thioether N-14) | 7.61

Next, values leading:

pIC50 | Compound
7.18 | CC(=O)NCCCC[C@@H]1NC(=O)[C@H](Cc2ccc(-c3ccccc3)cc2)NC(=O)[C@H](C(C)C)NC(=O)[C@H](Cc2c[nH]c3ccccc23)NC(=O)[C@H](CC(=O)O)NC(=O)[C@H](Cc2ccc(OCC(=O)O)cc2)NC(=O)[C@H](CN)NC(=O)CSC[C@@H](C(=O)N[C@@H](CCCN)C(=O)N[C@@H](CO)C(=O)NCCCCCCCCCCCC(=O)O)NC(=O)[C@H](C(C)O)NC(=O)[C@H](C(C)C)NC(=O)[C@H](CC2CCCCC2)NC(=O)[C@H](CCN)NC(=O)[C@@H](CC(C)C)NC(=O)[C@H](C)N(C)C1=O (stereo partly drawn) [Example 2407] ({CH2CO}-[Dap]Y(Carboxymethyl)DWV[Bip]K(Ac)[NMeA][dL][Dab][Cha]V[Thr(3ξ)]C[Orn]S[12Ado]-OH; thioether N-14)
7.82 | CC(C)C[C@@H]1NC(=O)[C@H](Cc2c[nH]c3ccccc23)NC(=O)[C@H](CC(=O)O)NC(=O)[C@H](Cc2ccncc2)NC(=O)[C@H](Cc2ccc(OCC(=O)O)cc2)NC(=O)CSC[C@@H](C(=O)N[C@@H](CCN)C(=O)NCCCCCCCCCCC(=O)O)NC(=O)[C@H]([C@@H](C)O)NC(=O)[C@H](C(C)C)NC(=O)[C@H](CC2CCCCC2)NC(=O)[C@H](CCN)NC(=O)[C@@H](CC(C)C)NC(=O)[C@H](C)N(C)C(=O)[C@H](C(C)C)NC(=O)[C@H](Cc2ccc(-c3ccccc3)cc2)NC1=O [Example 1329] ({CH2CO}-Y(Carboxymethyl)[4Pal]DWL[Bip]V[NMeA][dL][Dab][Cha]VTC[Dab][Aun]-OH; thioether N-14)
7.84 | Cc1cccc(C[C@@H]2NC(=O)[C@H](CC(=O)O)NC(=O)[C@H](Cc3ccc(OCC(=O)O)cc3)NC(=O)[C@H](CN)NC(=O)CSC[C@@H](C(=O)N[C@@H](CCN)C(=O)NCCCCCCCCCCC(=O)O)NC(=O)[C@H]([C@@H](C)O)NC(=O)[C@H](C(C)C)NC(=O)[C@H](CC3CCCCC3)NC(=O)[C@H](CCN)NC(=O)[C@@H](CC(C)C)NC(=O)[C@H](C)N(C)C(=O)[C@H](CCCNC(N)=O)NC(=O)[C@H](Cc3ccc(-c4ccccc4)cc3)NC(=O)C(C(C)C)NC2=O)c1 (stereo partly drawn) [Example 1356] ({CH2CO}-[Dap]Y(Carboxymethyl)D[Phe(3-Me)][ξV][Bip][Cit][NMeA][dL][Dab][Cha]VTC[Dab][Aun]-OH; thioether N-14)
7.52 | Cc1cccc(C[C@@H]2NC(=O)[C@H](CC(=O)O)NC(=O)[C@H](Cc3ccc(C(=O)O)cc3)NC(=O)[C@H](Cc3ccc(OCC(=O)O)cc3)NC(=O)CSC[C@@H](C(=O)NCCOCCOCC(=O)NCCCCCCCCCCC(=O)O)NC(=O)[C@H](C(C)O)NC(=O)[C@H](C(C)C)NC(=O)[C@H](CC3CCCCC3)NC(=O)[C@H](CCN)NC(=O)[C@@H](CC(C)C)NC(=O)[C@H](C)N(C)C(=O)[C@H](C(C)C)NC(=O)[C@H](Cc3ccc(-c4ccccc4)cc3)NC(=O)[C@H](CC(C)C)NC2=O)c1 (stereo partly drawn) [Example 2325] ({CH2CO}-Y(Carboxymethyl)[Phe(4-COOH)]D[Phe(3-Me)]L[Bip]V[NMeA][dL][Dab][Cha]V[Thr(3ξ)]C[AEEA][Aun]-OH; thioether N-14)

same assay, conditions: PE-labeled PD-L1-Ig 20 nM final, Jurkat-hPD-1 cells; read-out: Jurkat HPD1 PDL1 IC50

pIC50 | Compound
7.59 | CCC(C)[C@@H]1NC(=O)[C@H](Cc2ccc(-c3ccccc3)cc2)NC(=O)[C@H](C(C)C)NC(=O)[C@H](Cc2c[nH]c3ccccc23)NC(=O)[C@H](CC(=O)O)NC(=O)[C@H](Cc2ccc(C(=O)O)cc2)NC(=O)[C@H](Cc2ccc(OCC(=O)O)cc2)NC(=O)CSC[C@@H](C(=O)N[C@@H](CCN)C(=O)NCCOCCOCC(=O)NCCCCCCCCCCC(=O)O)NC(=O)[C@H](C(C)O)NC(=O)[C@H](C(C)(C)O)NC(=O)[C@H](CC2CCCCC2)NC(=O)[C@H](Cc2cnc[nH]2)NC(=O)[C@@H](CC(C)C)NC(=O)[C@H](C)N(C)C1=O (stereo partly drawn) [Example 2522] ({CH2CO}-Y(Carboxymethyl)[Phe(4-COOH)]DWV[Bip][Ile(3ξ)][NMeA][dL]H[Cha][Val(3-OH)][Thr(3ξ)]C[Dab][AEEA][Aun]-OH; thioether N-14)
7.90 | CC(C)C[C@H]1NC(=O)[C@H](C)N(C)C(=O)[C@H](CCCNC(N)=O)NC(=O)[C@H](Cc2ccc(-c3ccccc3)cc2)NC(=O)[C@H](C(C)C)NC(=O)[C@H](Cc2c[nH]c3ccccc23)NC(=O)[C@H](CC(=O)O)NC(=O)[C@H](Cc2ccc(OCC(=O)O)cc2)NC(=O)[C@H](Cc2ccc(OCC(=O)O)cc2)NC(=O)CSC[C@@H](C(=O)NCCOCCOCC(=O)NCCCCCCCCCCC(=O)O)NC(=O)[C@H](CO)NC(=O)[C@H](C(C)(C)O)NC(=O)[C@H](CC2CCCCC2)NC(=O)[C@H](CCN)NC1=O [Example 2456] ({CH2CO}-Y(Carboxymethyl)Y(Carboxymethyl)DWV[Bip][Cit][NMeA][dL][Dab][Cha][Val(3-OH)]SC[AEEA][Aun]-OH; thioether N-14)
